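All cell lines were grown in 96-well plates and treated with compound for 48 hours. At the TGI there is no net growth.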
Experiments:
Assay in all cases: DTP human tumour cell line panel, 48 h
SK-MEL-5 melanoma = tested on: SK-MEL-5 melanoma
SK-MEL-2 melanoma = tested on: SK-MEL-2 melanoma
HCT-116 colon = tested on: HCT-116 colon
HT29 colon = tested on: HT29 colon
MDA-MB-231 breast = tested on: MDA-MB-231 breast
KM12 colon = tested on: KM12 colon
SF-268 CNS = tested on: SF-268 CNS
UO-31 renal = tested on: UO-31 renal
SNB-19 CNS = tested on: SNB-19 CNS
COLO 205 colon = tested on: COLO 205 colon
HS 578T breast = tested on: HS 578T breast
IGROV1 ovarian = tested on: IGROV1 ovarian
UACC-257 melanoma = tested on: UACC-257 melanoma
OVCAR-8 ovarian = tested on: OVCAR-8 ovarian
LOX IMVI melanoma = tested on: LOX IMVI melanoma
NCI-H522 lung = tested on: NCI-H522 lung
MDA-MB-435 = tested on: MDA-MB-435
T-47D breast = tested on: T-47D breast
SW-620 colon = tested on: SW-620 colon
SR leukemia = tested on: SR leukemia
CAKI-1 renal = tested on: CAKI-1 renal
HL-60(TB) leukemia = tested on: HL-60(TB) leukemia
A498 renal = tested on: A498 renal
HCT-15 colon = tested on: HCT-15 colon
SF-295 CNS = tested on: SF-295 CNS
OVCAR-4 ovarian = tested on: OVCAR-4 ovarian
MDA-N = tested on: MDA-N
U251 CNS = tested on: U251 CNS
M14 melanoma = tested on: M14 melanoma
SN12C renal = tested on: SN12C renal
MCF7 breast = tested on: MCF7 breast
UACC-62 melanoma = tested on: UACC-62 melanoma
HCC-2998 colon = tested on: HCC-2998 colon
NCI-H23 lung = tested on: NCI-H23 lung
NCI-H460 lung = tested on: NCI-H460 lung
NCI-H226 lung = tested on: NCI-H226 lung
ACHN renal = tested on: ACHN renal
CCRF-CEM leukemia = tested on: CCRF-CEM leukemia
OVCAR-3 ovarian = tested on: OVCAR-3 ovarian
A549 NSCLC = tested on: A549 NSCLC
SNB-75 CNS = tested on: SNB-75 CNS
BT-549 breast = tested on: BT-549 breast
786-0 renal = tested on: 786-0 renal
K-562 leukemia = tested on: K-562 leukemia
DU-145 prostate = tested on: DU-145 prostate
RXF 393 renal = tested on: RXF 393 renal
SF-539 CNS = tested on: SF-539 CNS
MOLT-4 leukemia = tested on: MOLT-4 leukemia
OVCAR-5 ovarian = tested on: OVCAR-5 ovarian
SK-MEL-28 melanoma = tested on: SK-MEL-28 melanoma
NCI/ADR-RES ovarian = tested on: NCI/ADR-RES ovarian
TK-10 renal = tested on: TK-10 renal
RPMI-8226 leukemia = tested on: RPMI-8226 leukemia
MALME-3M melanoma = tested on: MALME-3M melanoma
EKVX NSCLC = tested on: EKVX NSCLC
SK-OV-3 ovarian = tested on: SK-OV-3 ovarian
HOP-92 NSCLC = tested on: HOP-92 NSCLC
PC-3 prostate = tested on: PC-3 prostate
HOP-62 NSCLC = tested on: HOP-62 NSCLC

Measured: TGI

CC(O)C1(CNc2cc(Cl)nc(N)n2)CCCC1 (centres undefined)
> 100 µM: SK-MEL-5 melanoma | SK-MEL-2 melanoma | HCT-116 colon | HT29 colon | MDA-MB-231 breast | KM12 colon | SF-268 CNS | UO-31 renal | SNB-19 CNS | COLO 205 colon | HS 578T breast | IGROV1 ovarian | UACC-257 melanoma | OVCAR-8 ovarian | LOX IMVI melanoma | NCI-H522 lung | MDA-MB-435 | T-47D breast | SW-620 colon | SR leukemia | CAKI-1 renal | HL-60(TB) leukemia | A498 renal | HCT-15 colon | SF-295 CNS | OVCAR-4 ovarian | MDA-N | U251 CNS | M14 melanoma | SN12C renal | MCF7 breast | UACC-62 melanoma | HCC-2998 colon | NCI-H23 lung | NCI-H460 lung | NCI-H226 lung | ACHN renal | CCRF-CEM leukemia | OVCAR-3 ovarian | A549 NSCLC | SNB-75 CNS | BT-549 breast | 786-0 renal | K-562 leukemia | DU-145 prostate | RXF 393 renal | SF-539 CNS | MOLT-4 leukemia | OVCAR-5 ovarian | SK-MEL-28 melanoma | NCI/ADR-RES ovarian | TK-10 renal | RPMI-8226 leukemia | MALME-3M melanoma | EKVX NSCLC | SK-OV-3 ovarian | HOP-92 NSCLC | PC-3 prostate | HOP-62 NSCLC

From PubChem BioAssay (NCI)
